This note sets out measurements from patent US5708007A, “2-(piperidin-4-yl, pyridin-4-yl and tetrahydropyridin-4-yl) benzofuran-7-ol and carbamate derivatives for treating memory dysfunction” (priority 1996, dated 1998).

This assay has as its target T1, Brain AChE (Rattus norvegicus, UniProt P37136).
T1 construct: corpora striata dissected free, weighed and homogenized in 19 volumes; from tissue; host or cells: corpora striata of male Wistar rats, crude homogenate in 0.05M phosphate buffer
T1 sequence (P37136 32-614): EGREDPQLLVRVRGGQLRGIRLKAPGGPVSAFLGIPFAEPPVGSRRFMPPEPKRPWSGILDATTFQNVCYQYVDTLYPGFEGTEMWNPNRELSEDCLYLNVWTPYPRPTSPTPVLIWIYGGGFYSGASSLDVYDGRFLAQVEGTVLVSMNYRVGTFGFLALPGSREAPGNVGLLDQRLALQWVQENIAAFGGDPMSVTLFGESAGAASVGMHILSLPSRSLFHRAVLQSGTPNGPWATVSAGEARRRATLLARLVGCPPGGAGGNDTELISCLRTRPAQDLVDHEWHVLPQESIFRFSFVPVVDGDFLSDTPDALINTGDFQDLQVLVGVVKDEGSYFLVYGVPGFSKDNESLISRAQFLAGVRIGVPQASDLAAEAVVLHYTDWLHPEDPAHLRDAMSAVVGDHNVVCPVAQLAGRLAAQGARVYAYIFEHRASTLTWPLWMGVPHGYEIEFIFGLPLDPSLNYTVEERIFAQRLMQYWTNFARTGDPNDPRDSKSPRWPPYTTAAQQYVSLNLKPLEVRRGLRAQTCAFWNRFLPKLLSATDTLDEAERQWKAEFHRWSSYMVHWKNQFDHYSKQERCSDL
Put plainly: biochemical. More on the design: species or system rat (male Wistar). To be noted: rat striatum homogenate; acetylthiocholine 5 mM final; pH 7.2; 10 min preincubation at 37° C.; log-probit analysis; read-out: Inhibitory Concentration (μM) Brain AChE. An excerpt:
Cholinesterases are found throughout the body, both in the brain and in serum. However, only brain acetylcholinesterase (AChE) distribution is correlated with central cholinergic innervation. […] We have determined in vitro inhibition of acetylcholinesterase activity in rat striatum according to the method described below.
In Vitro Inhibition of Acetylcholinesterase Activity in Rat Striatum
The method described below was used in this invention for assaying anticholinesterase activity. This is a modification of the method of Ellman et al., Biochem. Pharmacol. 7, 88 (1961).
1. 0.05M Phosphate buffer, pH 7.2
(c) add (a) to (b) until pH reaches 7.2
4. A 2 mM stock solution of the test drug is made up in a suitable solvent and brought to volume with 0.5 mM DTNB (reagent 3). Drugs are serially diluted (1:10) such that the final concentration (in cuvette) is 10^-4 M and screened for activity. If active, IC50 values are determined from the inhibitory activity of subsequent concentrations.
Enzyme activity is measured with the Beckman DU-50 spectrophotometer. This method can be used for IC50 determinations and for measuring kinetic constants.
Reagents are added to the blank and sample cuvettes as follows:
This program also calculates the rate of absorbance change for each cuvette.
Substrate concentration is 10 mM diluted 1:2 in assay yielding final concentration of 5 mM.
IC50 values are calculated from log-probit analysis.

Regarding `CNC(=O)Oc1cccc2cc(C3CCN(C)CC3)oc12` [2-(1-METHYL-4-PIPERIDINYL)-BENZOFURAN-7-YL METHYL CARBAMATE], the IC50 amounted to 1.8 µM.
The figure for `CN(C)C(=O)Oc1cccc2cc(C3CCNCC3)oc12` [2-(4-PIPERIDINYL)BENZOFURAN-7-YL DIMETHYL CARBAMATE HEMIFUMARATE] is 1.9 µM; for `CNC(=O)Oc1cccc2cc(-c3ccncc3)oc12` [2-(4-PYRIDINYL)BENZOFURAN-7-YL METHYL CARBAMATE] it is 1.2 µM.
